Assays:
ZAP-70 = target: T1, ZAP-70 (Homo sapiens, UniProt P43403); assay: ZAP-70 kinobeads assay; format: binding; settings: cell lysate, dot blot with ZAP-70 antibody
T1 construct: endogenous in cells
T1 sequence (P43403 1-619): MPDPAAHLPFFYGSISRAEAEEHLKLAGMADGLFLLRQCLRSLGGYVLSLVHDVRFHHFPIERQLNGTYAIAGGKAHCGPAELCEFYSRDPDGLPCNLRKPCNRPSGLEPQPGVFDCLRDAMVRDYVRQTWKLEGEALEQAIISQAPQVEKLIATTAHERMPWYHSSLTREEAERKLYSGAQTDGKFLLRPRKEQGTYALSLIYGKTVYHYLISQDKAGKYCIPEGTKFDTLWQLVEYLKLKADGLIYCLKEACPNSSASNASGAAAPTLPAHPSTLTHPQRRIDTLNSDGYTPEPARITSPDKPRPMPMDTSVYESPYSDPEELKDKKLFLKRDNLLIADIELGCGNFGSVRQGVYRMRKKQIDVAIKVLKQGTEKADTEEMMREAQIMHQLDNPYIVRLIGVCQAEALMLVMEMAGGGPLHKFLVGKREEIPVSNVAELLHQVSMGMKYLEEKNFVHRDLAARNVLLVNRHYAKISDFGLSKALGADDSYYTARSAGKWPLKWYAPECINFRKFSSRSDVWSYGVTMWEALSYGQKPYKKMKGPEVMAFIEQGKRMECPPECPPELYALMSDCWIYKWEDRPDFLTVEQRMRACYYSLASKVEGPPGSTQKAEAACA
Procedure: The compounds of the present invention as described in the previous examples were tested in the ZAP-70 kinobeads assay as described (EP-A 1862802 and WO-A 2007/137867). Briefly, test compounds (at various concentrations) and the affinity matrix with the immobilized aminopyrido-pyrimidine ligand 24 are added to cell lysate aliquots and allowed to bind to the proteins in the lysate sample. After the incubation time the beads with captured proteins are separated from the lysate. Bound proteins are then eluted and the presence ZAP-70 is detected and quantified using a specific antibody in a dot blot procedure and the Odyssey infrared detection system.

JAK3 = target: T2, JAK3 (Homo sapiens, UniProt P52333); assay: JAK3 kinobeads assay; format: binding; settings: cell lysate, dot blot with JAK3 specific antibody
T2 construct: endogenous in cells
T2 sequence (P52333 1-1124): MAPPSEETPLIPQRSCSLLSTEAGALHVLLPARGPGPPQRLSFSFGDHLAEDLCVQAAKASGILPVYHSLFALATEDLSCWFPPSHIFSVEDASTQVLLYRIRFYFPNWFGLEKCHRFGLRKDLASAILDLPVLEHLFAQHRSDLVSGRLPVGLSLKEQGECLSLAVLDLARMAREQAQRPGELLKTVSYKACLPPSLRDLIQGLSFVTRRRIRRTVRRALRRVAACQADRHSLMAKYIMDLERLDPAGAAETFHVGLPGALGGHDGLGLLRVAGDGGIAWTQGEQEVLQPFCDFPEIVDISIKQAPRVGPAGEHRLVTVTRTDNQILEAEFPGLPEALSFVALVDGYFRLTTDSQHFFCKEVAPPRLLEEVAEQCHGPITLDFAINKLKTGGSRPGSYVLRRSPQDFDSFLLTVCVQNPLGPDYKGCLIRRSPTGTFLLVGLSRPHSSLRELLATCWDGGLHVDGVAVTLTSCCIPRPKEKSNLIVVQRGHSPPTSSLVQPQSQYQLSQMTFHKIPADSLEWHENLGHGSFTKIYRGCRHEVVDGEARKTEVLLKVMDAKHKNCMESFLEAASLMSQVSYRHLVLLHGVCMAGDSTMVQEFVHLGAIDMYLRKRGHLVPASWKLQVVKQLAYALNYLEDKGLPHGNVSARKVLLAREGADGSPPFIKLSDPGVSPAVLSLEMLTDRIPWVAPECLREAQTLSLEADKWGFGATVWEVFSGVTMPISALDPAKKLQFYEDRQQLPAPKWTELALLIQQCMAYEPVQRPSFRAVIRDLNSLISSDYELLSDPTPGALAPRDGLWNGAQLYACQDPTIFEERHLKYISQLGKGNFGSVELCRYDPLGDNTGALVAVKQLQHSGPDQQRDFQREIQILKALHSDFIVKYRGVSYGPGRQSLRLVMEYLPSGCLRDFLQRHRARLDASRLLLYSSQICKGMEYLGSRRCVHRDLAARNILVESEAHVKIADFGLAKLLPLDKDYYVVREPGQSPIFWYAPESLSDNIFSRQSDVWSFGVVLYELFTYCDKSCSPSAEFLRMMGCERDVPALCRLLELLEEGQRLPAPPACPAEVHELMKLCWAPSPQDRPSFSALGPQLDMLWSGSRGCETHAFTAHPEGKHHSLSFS
How it was run: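 In this competition pulldown, test compounds at various concentrations were incubated in cell lysate together with beads carrying an immobilized aminopyrido-pyrimidine ligand. Bead-bound proteins were eluted, and JAK3 was quantified by dot blot with a JAK3-specific antibody and infrared detection.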

rheumatoid arthritis = settings: animal model of rheumatoid arthritis (Pine et al., 2007); cited from earlier work

Structure (SMILES)	IC50 (ZAP-70)	IC50 (JAK3)	inflammation and bone erosion (rheumatoid arthritis)
COc1ccc(Nc2nc(Nc3cn[nH]c3)ncc2F)c(NS(C)(=O)=O)c1 [Example 24, N-(2-(2-(1H-pyrazol-4-ylamino)-5-fluoropyrimidin-4-ylamino)-5-methoxyphenyl)methanesulfonamide]	100 to 1000 nM	≤ 100 nM	–
CCn1cc(Nc2ncc(Cl)c(Nc3ccc(OC)cc3NS(C)(=O)=O)n2)c(C)n1 [Example 28, N-(2-(5-chloro-2-(1-ethyl-3-methyl-1H-pyrazol-4-ylamino)pyrimidin-4-ylamino)-5-methoxyphenyl)methanesulfonamide]	100 to 1000 nM	≤ 100 nM	–
CCn1nccc1Nc1ncc(Cl)c(Nc2ccc(OC)cc2NS(C)(=O)=O)n1 [Example 29, N-(2-(5-chloro-2-(1-ethyl-1H-pyrazol-5-ylamino)pyrimidin-4-ylamino)-5-methoxyphenyl)methanesulfonamide]	100 to 1000 nM	1000 to 10000 nM	–
Cc1nn(C)cc1Nc1ncc(F)c(Nc2ccccc2NS(C)(=O)=O)n1 [Example 30, N-(2-(2-(1,3-dimethyl-1H-pyrazol-4-ylamino)-5-fluoropyrimidin-4-ylamino)phenyl)methanesulfonamide]	100 to 1000 nM	100 to 1000 nM	–
COc1ccc(Nc2nc(Nc3nonc3C)ncc2Cl)c(NS(C)(=O)=O)c1 [Example 31, N-(2-(5-chloro-2-(4-methyl-1,2,5-oxadiazol-3-ylamino)pyrimidin-4-ylamino)-5-methoxyphenyl)methanesulfonamide]	1000 to 10000 nM	1000 to 10000 nM	–
COc1ccc(Nc2nc(Nc3cn(C)nc3C)ncc2F)c(NS(C)(=O)=O)c1 [Example 32, N-(2-(2-(1,3-dimethyl-M-pyrazol-4-ylamino)-5-fluoropyrimidin-4-ylamino)-5-methoxyphenyl)methanesulfonamide]	100 to 1000 nM	100 to 1000 nM	–
CCn1cc(Nc2ncc(Cl)c(Nc3ccccc3NS(C)(=O)=O)n2)c(C)n1 [Example 33, N-(2-(5-chloro-2-(1-ethyl-3-methyl-M-pyrazol-4-ylamino)pyrimidin-4-ylamino)phenyl)methanesulfonamide]	100 to 1000 nM	≤ 100 nM	–
CCn1cc(Nc2ncc(F)c(Nc3ccc(OC)cc3NS(C)(=O)=O)n2)c(C)n1 [Example 34, N-(2-(2-(1-ethyl-3-methyl-1H-pyrazol-4-ylamino)-5-fluoropyrimidin-4-ylamino)-5-methoxyphenyl)methanesulfonamide]	100 to 1000 nM	100 to 1000 nM	–
Cc1nn(C)cc1Nc1ncc(Cl)c(Nc2ccccc2NS(C)(=O)=O)n1 [Example 35, N-(2-(5-chloro-2-(1,3-dimethyl-1H-pyrazol-4-ylamino)pyrimidin-4-ylamino)phenyl)methanesulfonamide]	≤ 100 nM	≤ 100 nM	–
COc1cc(Nc2ncc(F)c(Nc3ccc4c(n3)NC(=O)C(C)(C)O4)n2)cc(OC)c1OC [Example R406]	–	–	suppresses inflammation and bone erosion

The next lines start with results.

IC50 (ZAP-70)	IC50 (JAK3)	Structure (SMILES)	inflammation and bone erosion (rheumatoid arthritis)
1000 to 10000 nM	100 to 1000 nM	COc1ccc(Nc2nc(Nc3ccon3)ncc2F)c(NS(C)(=O)=O)c1 [Example 36, N-(2-(5-fluoro-2-(isoxazol-3-ylamino)pyrimidin-4-ylamino)-5-methoxyphenyl)methanesulfonamide]	–
1000 to 10000 nM	100 to 1000 nM	CCn1cc(Nc2ncc(F)c(Nc3ccccc3NS(C)(=O)=O)n2)c(C)n1 [Example 37, N-(2-(2-(1-ethyl-3-methyl-1H-pyrazol-4-ylamino)-5-fluoropyrimidin-4-ylamino)phenyl)methanesulfonamide]	–
1000 to 10000 nM	≤ 100 nM	CS(=O)(=O)Nc1ccccc1Nc1nc(Nc2ccon2)ncc1Cl [Example 38, N-(2-(5-chloro-2-(isoxazol-3-ylamino)pyrimidin-4-ylamino)phenyl)methanesulfonamide]	–
100 to 1000 nM	≤ 100 nM	Cc1cc(Nc2ncc(Cl)c(Nc3ccccc3NS(C)(=O)=O)n2)nn1C [Example 39, N-(2-(5-chloro-2-(1,5-dimethyl-1H-pyrazol-3-ylamino)pyrimidin-4-ylamino)phenyl)methanesulfonamide]	–
100 to 1000 nM	≤ 100 nM	CC(C)n1ccc(Nc2ncc(Cl)c(Nc3ccccc3NS(C)(=O)=O)n2)n1 [Example 40, N-(2-(5-chloro-2-(1-isopropyl-1H-pyrazol-3-ylamino)pyrimidin-4-ylamino)phenyl)methanesulfonamide]	–
100 to 1000 nM	≤ 100 nM	Cn1cc(Nc2ncc(Br)c(Nc3ccccc3NS(C)(=O)=O)n2)cn1 [Example 41, N-(2-(5-bromo-2-(1-methyl-1H-pyrazol-4-ylamino)pyrimidin-4-ylamino)phenyl)methanesulfonamide]	–
100 to 1000 nM	≤ 100 nM	CCn1ccc(Nc2ncc(Cl)c(Nc3ccccc3NS(C)(=O)=O)n2)n1 [Example 42, N-(2-(5-chloro-2-(1-ethyl-1H-pyrazol-3-ylamino)pyrimidin-4-ylamino)phenyl)methanesulfonamide]	–
100 to 1000 nM	≤ 100 nM	Cn1ccc(Nc2ncc(Br)c(Nc3ccccc3NS(C)(=O)=O)n2)n1 [Example 43, N-(2-((5-bromo-2-((1-methyl-1H-pyrazol-3-yl)amino)pyrimidin-4-yl)amino)phenyl)methanesulfonamide]	–
1000 to 10000 nM	100 to 1000 nM	CS(=O)(=O)Nc1ccccc1Nc1nc(Nc2cnoc2)ncc1Cl [Example 44, N-(2-((5-chloro-2-(isoxazol-4-ylamino)pyrimidin-4-yl)amino)phenyl)methanesulfonamide]	–
≤ 100 nM	100 to 1000 nM	COc1ccc(Nc2nc(Nc3cnn(C)c3C)ncc2Cl)c(NS(C)(=O)=O)c1 [Example 67, N-(2-((5-chloro-2-((1,5-dimethyl-1H-pyrazol-4-yl)amino)pyrimidin-4-yl)amino)-5-methoxyphenyl)methanesulfonamide]	–
≤ 100 nM	100 to 1000 nM	CCn1ncc(Nc2ncc(Cl)c(Nc3ccc(OC)cc3NS(C)(=O)=O)n2)c1C [Example 77, N-(2-((5-chloro-2-((1-ethyl-5-methyl-1H-pyrazol-4-yl)amino)pyrimidin-4-yl)amino)-5-methoxyphenyl)methanesulfonamide]	–
100 to 1000 nM	1000 to 10000 nM	COc1ccc(Nc2nc(Nc3cc(C)nn3CCO)ncc2Cl)c(NS(C)(=O)=O)c1 [Example 94, N-(2-((5-chloro-2-((1-(2-hydroxyethyl)-3-methyl-1H-pyrazol-5-yl)amino)pyrimidin-4-yl)amino)-5-methoxyphenyl)methanesulfonamide]	–
100 to 1000 nM	1000 to 10000 nM	COCCn1nc(C)cc1Nc1ncc(Cl)c(Nc2ccc(OC)cc2NS(C)(=O)=O)n1 [Example 96, N-(2-((5-chloro-2-((1-(2-methoxyethyl)-3-methyl-1H-pyrazol-5-yl)amino)pyrimidin-4-yl)amino)-5-methoxyphenyl)methanesulfonamide]	–

Reference: patent US20120172384A1, “HETEROCYCLYLAMINOPYRIMIDINES AS KINASE INHIBITORS” (priority 2009, published 2012)
